Laboratory results published in a melting point compilation (Tetko et al.; mined from patent text by program, amines drawn as free bases though some values may be those of a salt).

| SMILES | melting point [°C] |
| --- | --- |
| O=C1C(=O)c2ccccc2C2=C1SCC1(CCN(CCOc3ccc(Cl)cc3)CC1)O2 | 131 to 133 |
| COC(=O)CCCCc1csc(N=C2SC[C@@H]3Cc4ccccc4CN23)n1 | 92 |
| O=C(O)c1ccc(CCCCCc2ccccc2)cc1 | 80 to 80.5 |
| CN(C(F)(F)C(F)F)S(=O)(=O)c1ccccc1S(N)(=O)=O | 102 to 107 |
| C/C=C/C[C@@H](C)[C@@H](O)[C@H](NC)C(=O)O | 228 to 233 |
| COc1ccc(CC2(C(F)F)NC(=O)NC2=O)cc1 (stereo unspecified) | 164 |
| O=C1Nc2ccc(C(O)c3ccc(Cl)cc3)cc2C(c2cccc(Cl)c2)N1 (stereo unspecified) | 231 |
| CC(C)(C)c1csc(-c2cc3cc(CC(C(=O)O)C(=O)O)ccc3o2)n1 | > 320 |
| C#CCOc1cc(-n2nc3ccc(Cl)cn3c2=O)c(F)cc1C#N | 209 to 211 |
| Fc1ccc([C@H]2CC[C@H](N3CCN(Cc4ccccc4)CC3)CC2)c2ccccc12 | 130 to 132 |
| CCCCc1c(-c2ncccc2C(=O)O)n(-c2ccccc2)n(-c2ccccc2)c1=O | 139 to 141 |
| COC(=O)c1ccc(OC)cc1S(=O)(=O)Cl | 69 to 72 |
| COc1ccc(-c2c(Cl)c(CNC(=O)Cn3cncn3)nc3sc4c(c23)CCN(Cc2ccccc2)C4)cc1OC | 101 to 102 |
| CC(Cc1cc([N+](=O)[O-])cc2ccoc12)NC(=O)OC(C)(C)C (stereo unspecified) | 131 to 132 |
| CCc1ccc(OC(C)(C)C(=O)O)cc1OCCCc1cn(-c2ccc(C(F)(F)F)cn2)nc1C(C)C | 115 to 116 |
| Cc1ccc(N(c2ccc(C)cc2)c2ccc(C=Cc3cc(O)cc(O)c3)cc2)cc1 | 161 |
| O=C(CN1C(=O)c2ccccc2C1=O)Nc1ccccc1Oc1ccccc1 | 143 |
| CCCC(=O)c1ccc2[nH]cc3c2c1CC(N(CCC)CCC)C3 (stereo unspecified) | 151 to 153 |
| CCN(CC)C(=O)n1ccc(S(=O)(=O)c2c(C)cccc2OC)n1 | 71 to 73 |
| O=C(c1ccccc1)c1cc2c(s1)SCCc1cc(=O)n(-c3ccc(Cl)cc3)nc1-2 | 180 to 182 |
| OC1CSC(=S)N1c1ccccn1 (stereo unspecified) | 110 |
| COc1ccc2c(c1)Sc1c(cc(OC)c(O)c1Br)N2 | 185 |
| O=C(Nc1ccc(-n2nc(C(F)(F)F)cc2C(F)(F)F)cc1)C1CCCO1 (stereo unspecified) | 113 to 116 |
| CCOC(=O)C1(C(=O)OCC)CCNC(=O)CC1 | 80 to 81 |
| COCN(c1cccc2cc(C(N)=O)n(COC)c12)S(=O)(=O)c1cccs1 | 203 to 204 |
| O=C(c1cccs1)c1cnn2c(-c3ccc(Cl)nc3)ccnc12 | 145 to 148 |

| SMILES | melting point [°C] |
| --- | --- |
| CCOC(=O)c1c(NCCCC(=O)c2ccccc2)c2c(Cl)cc(Cl)cc2n1C(=O)OC(C)(C)C | 110 to 111 |
| COc1cc(Br)c(O)c(/C=C/C(=O)/C=C/c2cc(OC)cc(Br)c2O)c1 | 155 to 157 |
| O=[N+]([O-])c1ccc(Oc2ccc3c(c2)OCC(c2ccccc2)O3)nc1 (stereo unspecified) | 163 to 170 |
| Cc1nc2c(OCc3ccccc3)cc(Br)cc2n1C | 177 to 179 |
| CCn1ccc2c(c1=O)CN=C(N1CCN(Cc3ccccc3)CC1)N2 | 200 to 203 |
| O=C1NCc2cnc(Nc3ccc(N4CCCCC4CO)cc3)nc2N1C1CCCC1 (stereo unspecified) | 220 to 221 |
| CN(C)c1nc(C(=O)NCCO[N+](=O)[O-])cs1 | 94 to 95 |
| C=C1C(=O)OC2C1CCC(CO)=CCCC1(C)OC21 (stereo unspecified) | 172 to 176 |
| O=C1C=C(NC(=O)C(=O)c2cn(Cc3ccc(Cl)cc3)c3cc(Cl)ccc23)CO1 | 255 to 257 |
| C=CCc1c(OCCCOc2ccc(C(C)=O)c(O)c2CCC)ccc2oc(C(=O)O)cc12 | 157 to 158 |
| Cc1ccccc1C(=O)Nc1ccc(C(=O)N2CCCC(N(C)CC#N)c3ccccc32)cc1 (stereo unspecified) | 227 to 228 |
| CCC(=O)Nc1c(Sc2cc(C)cc(C)c2)c(C)c[nH]c1=O | 186 to 188 |
| O=C(O)CNC(=O)Nc1ccc(Cl)cc1 | 218 |
| CCOC(=O)C(=CNc1cccccc1=O)C(=O)OCC | 66 to 68 |
| BrCCCOc1ccc(-c2ccccc2)cc1 | 60 to 63 |
| O=C(O)/C=C/c1ccc(-c2nc3c([nH]2)c(=O)n(CC2CCCCC2)c(=O)n3CC2CCCCC2)s1 | > 300 |
| O=C(O)c1ccc(NC(=O)C(CS)Cc2ccccc2)cc1Cl (stereo unspecified) | 65 to 70 |
| COc1nc(OS(=O)(=O)C(F)(F)F)cc2cccnc12 | 99 to 101 |
| C#CCN1Cc2cccc3cccc(c23)C1=O | 139 to 140 |
| O=C(O)c1cnc2n1CCc1ccccc1C2=C1CCN(CCc2ccc(OCc3ccc4ccccc4n3)cc2)CC1 | 174 |
| NC(=O)CC(CC(N)=O)c1cccc(F)c1 | 194 to 196 |
| CCCCOc1cc(/C=C(\OCC)C(=O)O)ccc1CCCc1ccc(OS(=O)(=O)CCCC)c(OC)c1 | 75 |
| O=C(CC1CCCC1)Nc1ccc2cccc(O)c2c1 | 162 to 165 |
| CC(=O)c1c(N2CCCC2)nn2ccccc12 | 59.5 to 60 |
| CC(=O)N1CC(CCN2CC=C(c3ccccc3)CC2)c2cc3c(cc21)OCO3 (stereo unspecified) | 90 to 91 |
| CCOc1cc2cc(CO)c(CO)c(-c3ccnc(Br)c3)c2cc1OC | 156 to 157 |

| SMILES | melting point [°C] |
| --- | --- |
| N#Cc1ccn2ccccc12 | 53 to 54 |
| CC(C)(C)OC(=O)N1CCC(c2nc3cc(-c4ccc(S(C)(=O)=O)c(F)c4)ccc3o2)CC1 | 174 to 178 |
| CC(c1ccc(F)cc1)N1CCN(c2cc(Oc3cccc4c(=O)[nH]ccc34)ncn2)CC1 (stereo unspecified) | 249 |
| Cc1ccc(C2(CNC(=O)Nc3c(C(C)C)cccc3C(C)C)CCCC2)cc1 | 159 to 161 |
| COc1ccc(C(=O)[C@H]2CC=CC[C@H]2C(=O)O)cc1F (relative stereo) | 185 to 187 |
| CC(O)(C#CCCO)c1ccc(-c2ccc(Cl)cc2)cc1 (stereo unspecified) | 105 |
| C[C@@H]1C(=O)C[C@H]2C[C@@H]1OO[C@@]2(C)/C=C\c1ccc(C#N)cc1 | 125 |
| COC(=O)c1c(C(F)F)nc(C(F)(F)F)c(C2CC(C)N(O)C2)c1CC1CC1 (stereo unspecified) | 142 to 144 |
| N#CC(C#N)=C1Sc2cnn(-c3ccccc3)c(=O)c2S1 | 240 |
| CC(C)c1ccc2oc(C(O)COc3ccc(CO)cc3)cc2c1 (stereo unspecified) | 98 to 100 |
| Cc1ccc2c(c1)Oc1ncc([N+](=O)[O-])cc1C(=O)N2C | 197 to 198 |
| c1ccc(NN2CCc3ccccc32)cc1 | 182 to 183 |
| NS(=O)(=O)c1ccc(-c2cc(-c3c[nH]nc3-c3cccc(C4CC4)n3)ccc2F)cc1 | 225 to 226 |
| COC1(OC)C2(Cl)C(Cl)=C(Cl)C1(Cl)C(O)C2O (stereo unspecified) | 160 to 162 |
| COc1cccc2ccc(CC#N)cc12 | 47 to 48 |
| COc1ccc(-c2cccc(C=CC(=O)Nc3ccc(CN4CCCCC4)cc3)c2)cc1 | 150 to 151 |
| CCOC(=O)COc1ccc(NC(=O)c2cnc(NC(=N)N)s2)cc1 | 218 |
| CCOC(=O)[C@H](Cc1c[nH]c2ccccc12)NC(=O)OCc1ccccc1 | 80 to 83 |
| COC(=O)[C@H]1CC[C@H](NC(=O)c2cc(-c3ccc(C(=N)N)cc3)nn(Cc3ccccc3)c2=O)CC1 | 168 to 173 |
| Cn1c(=O)c(-c2c(Cl)cccc2Cl)cc2cnc(Nc3ccc(Cl)cc3)nc21 | 255 to 256 |
| CN(C)C(=O)Nc1c(Cl)cc2c(c1Cl)C(c1ccccc1F)=NCC(=O)N2C | 145 to 147 |
| CCn1nc(C#N)c(=O)c2ccccc21 | 216 to 218 |
| CCOC(=O)c1cc(-n2c(=O)[nH]c3c(c2=O)CCC3)ccc1Cl | 178 to 180 |
| N#CCC(=O)Nc1c([N+](=O)[O-])cnn1-c1c(Cl)cc(C(F)(F)F)cc1Cl | 221 to 223 |
| O=C(O)CCC1CCCC2CC(=O)NC12 (stereo unspecified) | 180 to 181 |
| O=C1CCC(c2ccc(-c3ccc(Cl)c(Cl)c3)o2)O1 (stereo unspecified) | 89 to 90 |

| SMILES | melting point [°C] |
| --- | --- |
| O=C(CC1CCCCC1)Nc1c(Cl)ccc2nc(N3CC[C@H](NS(=O)(=O)C(F)(F)F)C3)ccc12 | 178 to 200 |
| Nc1ncc(-c2ccccc2)nc1Sc1ccccc1 | 109 to 112 |
| NC(=O)COc1cccc(CCNS(=O)(=O)c2cccc(C(F)(F)F)c2)c1 | 118 |
| COCCOc1ccc(C=NOC)cc1O | 63 to 64 |
| Cc1ccc([N+](=O)[O-])cc1S(=O)(=O)n1nnc2ccccc21 | 169 to 170 |
| C[C@@H]1N=C(c2ccccc2)c2cc(C#CCCCC(=O)NO)ccc2N(C)C1=O | 101 to 103 |
| CCN(CCCCc1coc2ccccc12)C[C@H]1COc2ccc3nc(C)ccc3c2O1 | 87 to 92 |
| CCN(CC)c1ccc([N+](=O)[O-])c2nnoc12 | 133 to 136 |
| CCN(CC)C(=O)c1ccn2nc(-c3ccccc3)c(-c3ccc(=O)n(C(C)C)n3)c2c1 | 157 to 158 |
| CCc1nc2c(O)cc(C(=O)N(C)C)cc2n1C | 193 to 199 |
| Nc1nc(Cl)c(N)c(NCCO)n1 | 164 to 167 |
| COC(=O)C(C)Oc1ccccc1S(N)(=O)=O (stereo unspecified) | 140 to 142 |
| CC(=O)c1ccc2[nH]c3ccc(C(C)=O)cc3c2c1 | 241 |
| O=C(c1cc(-c2ccccc2)no1)C1CCCCC1N1CCCC1 (stereo unspecified) | 109 to 111 |
| COC(=O)c1c(NC(C)=O)sc2c1CCC(c1ccccc1)C2 (stereo unspecified) | 116 to 117 |
| CN1CCN(C(=O)N2CC(Oc3ccc(Br)cc3)C2)CC1 | 91 to 95 |
| O=C(O)C=Cc1ccc(CCNC(=O)c2ccc(Cl)cc2)cc1 | 253 to 255 |
| CCOC(=O)N1CC[C@H](NC(=O)c2cc(N)c(Cl)cc2OC)[C@H](OC)C1 (relative stereo) | 142 |
| COC(=O)CCCc1cc2cc(C(F)(F)F)ccc2n1S(=O)(=O)c1cccc(C(C)(C)C)c1 | 84 |
| Cc1sc2nc3cccc(C)c3c(=O)n2c1C | 278 to 280 |
| COC(=O)c1ncoc1C(C)C | 49 to 50 |
| Cn1cnc(COc2nn3c(-c4ccccc4)nnc3cc2-c2ccccc2)n1 | 229 to 233 |
| COC(=O)Nc1ccc(Br)cc1I | 129 to 130 |
